Assay [1] is described as follows: Antiproliferative activity against human HBC4 cells after 48 hrs by SRB assay. It is filed as functional. To be noted: HBC4, 48 h. For orientation: The SRB assay estimates cell density from bound dye.
Another assay relates to NCI-H226. Description: Antiproliferative activity against human NCI-H226 cells after 48 hrs by SRB assay. Format: functional. To be noted: NCI-H226, 48 h.
A further assay concerns MKN-45. As to the kind of experiment: Antiproliferative activity against human MKN45 cells after 48 hrs by SRB assay. It is filed as functional. The conditions noted are these: MKN-45, 48 h.
The test system of another assay is SK-OV-3. Description: Antiproliferative activity against human SKOV3 cells after 48 hrs by SRB assay. It is filed as functional. To be noted: SK-OV-3, 48 h.
A further assay concerns MKN-28. Description: Antiproliferative activity against human MKN28 cells after 48 hrs by SRB assay. It is filed as functional. The conditions noted are these: MKN-28, 48 h.
In another assay the test system is Colon 26. As to the kind of experiment: Antitumor activity against mouse Colon 26 cells implanted in BALB/c mouse at 50 mg/kg, iv administered every 2 days for 7 times starting 1 day after tumor implantation and measured daily until day 20. It is filed as functional, organism-based.
The nature of assay [2]: Antiproliferative activity against human HBC5 cells after 48 hrs by SRB assay. Format: functional. The conditions noted are these: HBC5, 48 h.
The test system of a further assay is NCI-H460. As to the kind of experiment: Antiproliferative activity against human NCI-H460 cells after 48 hrs by SRB assay. It is filed as functional. To be noted: NCI-H460, 48 h.
In assay [3] the target is T1, DNA topoisomerase I (Bos taurus) (UniProt F1MN93).
T1 sequence (whole entry): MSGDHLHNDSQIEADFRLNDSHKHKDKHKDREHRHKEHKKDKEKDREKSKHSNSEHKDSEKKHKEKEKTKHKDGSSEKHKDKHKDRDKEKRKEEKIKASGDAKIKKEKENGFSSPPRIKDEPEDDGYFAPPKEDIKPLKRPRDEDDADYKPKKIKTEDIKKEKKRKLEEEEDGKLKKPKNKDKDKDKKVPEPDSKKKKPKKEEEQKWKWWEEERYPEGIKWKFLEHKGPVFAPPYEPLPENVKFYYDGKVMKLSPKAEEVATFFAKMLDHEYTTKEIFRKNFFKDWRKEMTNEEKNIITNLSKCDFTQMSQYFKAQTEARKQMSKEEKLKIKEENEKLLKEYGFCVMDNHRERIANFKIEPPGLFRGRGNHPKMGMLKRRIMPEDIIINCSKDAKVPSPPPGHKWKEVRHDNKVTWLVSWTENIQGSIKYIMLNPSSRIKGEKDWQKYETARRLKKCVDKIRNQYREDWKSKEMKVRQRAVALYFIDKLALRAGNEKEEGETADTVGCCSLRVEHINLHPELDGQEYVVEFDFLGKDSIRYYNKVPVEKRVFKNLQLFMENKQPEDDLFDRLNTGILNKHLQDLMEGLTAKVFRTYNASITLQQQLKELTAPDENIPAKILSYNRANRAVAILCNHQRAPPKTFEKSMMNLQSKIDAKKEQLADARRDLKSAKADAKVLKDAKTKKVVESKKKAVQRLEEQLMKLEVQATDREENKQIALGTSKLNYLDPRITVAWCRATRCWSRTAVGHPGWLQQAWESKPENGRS
Description: Inhibition of calf thymus DNA topoisomerase 1 assessed as reduction in enzyme-mediated relaxation of supercoiled pBR322 plasmid DNA at 10 uM after 30 mins by ethidium bromide staining-based agarose gel electrophoresis.

The structures appear in SMILES notation. Activity calls are given as the source filed them. The rule behind the calls is not given here.

For the compound `COc1cc2c(ccc3c4c(=O)oc5cc(OC(=O)[C@@H](N)C(C)C)c(OC)cc5c4n(C)c23)cc1OC(=O)[C@@H](N)C(C)C.O=C(O)C(F)(F)F.O=C(O)C(F)(F)F`, the GI50 is 10 nM in assay [1]; 89.1 nM in the assay on NCI-H226; 105 nM in the assay on MKN-45; 20 nM in the assay with SK-OV-3 (read-out: GI50); 19.9 nM in the assay with SK-OV-3 (read-out: pGI50 (converted)); 41 nM with MKN-28 (read-out: GI50). The GI50 with MKN-28 (read-out: pGI50 (converted)) was 40.7 nM; in [2] it was 138 nM; with NCI-H460, 4.37 nM. Also, the outcome with Colon 26 was Active. Further, the inhibition entry in [3] is “Active”.
